According to US8129417B2, “Substituted octahydrocyclopenta[C]pyrrol-4-amines as calcium channel blockers” (Abbott Laboratories, priority 2008, dated 2012):

Molecular target: human Cav2.2 (Homo sapiens, UniProt Q00975)
Assay: Assessment of calcium channel activity using FLIPR (Ca2+ influx in IMR32 cells)
Format: cell-based
Details: 60 minute pre-incubation with compound, 2 μM nifedipine, depolarized with 80 mM KCl
Procedure, shortened: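 IMR32 neuroblastoma cells seeded at 1-1.2×10^5 cells/well and grown 48 h at 37 °C before FLIPR Ca2+ influx read. Percent inhibition at each concentration vs no-inhibitor activity; IC50 by non-linear sigmoidal dose-response fit.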

human Cav2.2, sequence (Q00975 whole entry): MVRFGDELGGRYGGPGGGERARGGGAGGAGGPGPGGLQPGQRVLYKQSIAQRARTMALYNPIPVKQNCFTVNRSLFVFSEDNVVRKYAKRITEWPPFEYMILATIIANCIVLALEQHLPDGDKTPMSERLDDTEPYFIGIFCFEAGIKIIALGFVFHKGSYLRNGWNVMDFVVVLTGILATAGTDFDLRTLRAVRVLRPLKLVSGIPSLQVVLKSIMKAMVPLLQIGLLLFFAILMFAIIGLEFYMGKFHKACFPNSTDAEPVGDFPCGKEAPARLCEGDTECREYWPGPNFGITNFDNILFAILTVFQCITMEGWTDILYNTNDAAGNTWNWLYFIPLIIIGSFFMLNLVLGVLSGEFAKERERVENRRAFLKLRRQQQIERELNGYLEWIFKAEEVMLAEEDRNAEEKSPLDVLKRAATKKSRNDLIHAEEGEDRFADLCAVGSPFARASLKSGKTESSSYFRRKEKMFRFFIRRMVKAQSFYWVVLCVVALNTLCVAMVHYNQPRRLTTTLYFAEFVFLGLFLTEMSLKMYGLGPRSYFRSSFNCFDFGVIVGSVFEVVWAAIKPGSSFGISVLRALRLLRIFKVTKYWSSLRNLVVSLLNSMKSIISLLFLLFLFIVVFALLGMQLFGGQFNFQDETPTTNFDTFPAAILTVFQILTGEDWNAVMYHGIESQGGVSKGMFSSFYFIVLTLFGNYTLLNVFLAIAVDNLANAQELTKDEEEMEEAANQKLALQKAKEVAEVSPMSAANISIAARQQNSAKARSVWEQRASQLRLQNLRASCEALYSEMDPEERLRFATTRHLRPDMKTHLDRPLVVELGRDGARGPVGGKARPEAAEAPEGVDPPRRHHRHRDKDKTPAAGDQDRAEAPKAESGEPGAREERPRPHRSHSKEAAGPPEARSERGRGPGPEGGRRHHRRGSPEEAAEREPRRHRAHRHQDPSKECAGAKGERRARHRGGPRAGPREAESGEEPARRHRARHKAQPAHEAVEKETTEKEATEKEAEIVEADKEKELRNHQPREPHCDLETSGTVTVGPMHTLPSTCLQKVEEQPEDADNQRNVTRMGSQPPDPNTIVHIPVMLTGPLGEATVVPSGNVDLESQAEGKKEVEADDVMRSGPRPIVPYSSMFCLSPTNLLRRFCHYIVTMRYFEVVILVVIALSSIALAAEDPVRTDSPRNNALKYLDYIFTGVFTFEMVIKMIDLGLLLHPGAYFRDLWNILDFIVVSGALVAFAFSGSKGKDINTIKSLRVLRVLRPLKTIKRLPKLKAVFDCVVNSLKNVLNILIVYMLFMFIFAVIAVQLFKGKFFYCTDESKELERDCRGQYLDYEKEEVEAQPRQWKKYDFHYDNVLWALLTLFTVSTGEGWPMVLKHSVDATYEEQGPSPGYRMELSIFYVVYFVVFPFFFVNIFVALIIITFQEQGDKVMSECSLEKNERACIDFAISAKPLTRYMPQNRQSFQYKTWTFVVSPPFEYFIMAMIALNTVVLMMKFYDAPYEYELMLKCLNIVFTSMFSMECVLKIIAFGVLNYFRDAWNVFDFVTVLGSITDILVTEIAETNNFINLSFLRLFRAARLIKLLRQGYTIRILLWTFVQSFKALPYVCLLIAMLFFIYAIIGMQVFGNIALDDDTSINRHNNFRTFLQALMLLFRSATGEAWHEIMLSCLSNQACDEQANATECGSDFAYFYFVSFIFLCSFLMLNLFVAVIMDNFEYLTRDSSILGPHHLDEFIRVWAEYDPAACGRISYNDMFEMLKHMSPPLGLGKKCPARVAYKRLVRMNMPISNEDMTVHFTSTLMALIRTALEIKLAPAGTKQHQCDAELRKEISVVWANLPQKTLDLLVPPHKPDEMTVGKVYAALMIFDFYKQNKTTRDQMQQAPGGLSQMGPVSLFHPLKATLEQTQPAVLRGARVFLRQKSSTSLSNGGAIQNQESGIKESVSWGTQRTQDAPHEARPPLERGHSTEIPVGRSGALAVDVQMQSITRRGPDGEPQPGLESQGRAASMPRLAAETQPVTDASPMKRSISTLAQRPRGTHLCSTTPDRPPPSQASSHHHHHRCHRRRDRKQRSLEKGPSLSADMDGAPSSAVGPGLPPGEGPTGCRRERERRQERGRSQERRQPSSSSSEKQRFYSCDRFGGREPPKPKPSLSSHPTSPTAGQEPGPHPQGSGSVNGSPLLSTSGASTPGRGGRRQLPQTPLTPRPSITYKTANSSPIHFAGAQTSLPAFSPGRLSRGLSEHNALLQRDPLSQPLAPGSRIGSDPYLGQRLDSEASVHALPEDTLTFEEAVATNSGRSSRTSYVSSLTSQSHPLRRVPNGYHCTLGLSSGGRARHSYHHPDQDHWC
human Cav2.2, sequence (P54289 25-946 partner limits assumed): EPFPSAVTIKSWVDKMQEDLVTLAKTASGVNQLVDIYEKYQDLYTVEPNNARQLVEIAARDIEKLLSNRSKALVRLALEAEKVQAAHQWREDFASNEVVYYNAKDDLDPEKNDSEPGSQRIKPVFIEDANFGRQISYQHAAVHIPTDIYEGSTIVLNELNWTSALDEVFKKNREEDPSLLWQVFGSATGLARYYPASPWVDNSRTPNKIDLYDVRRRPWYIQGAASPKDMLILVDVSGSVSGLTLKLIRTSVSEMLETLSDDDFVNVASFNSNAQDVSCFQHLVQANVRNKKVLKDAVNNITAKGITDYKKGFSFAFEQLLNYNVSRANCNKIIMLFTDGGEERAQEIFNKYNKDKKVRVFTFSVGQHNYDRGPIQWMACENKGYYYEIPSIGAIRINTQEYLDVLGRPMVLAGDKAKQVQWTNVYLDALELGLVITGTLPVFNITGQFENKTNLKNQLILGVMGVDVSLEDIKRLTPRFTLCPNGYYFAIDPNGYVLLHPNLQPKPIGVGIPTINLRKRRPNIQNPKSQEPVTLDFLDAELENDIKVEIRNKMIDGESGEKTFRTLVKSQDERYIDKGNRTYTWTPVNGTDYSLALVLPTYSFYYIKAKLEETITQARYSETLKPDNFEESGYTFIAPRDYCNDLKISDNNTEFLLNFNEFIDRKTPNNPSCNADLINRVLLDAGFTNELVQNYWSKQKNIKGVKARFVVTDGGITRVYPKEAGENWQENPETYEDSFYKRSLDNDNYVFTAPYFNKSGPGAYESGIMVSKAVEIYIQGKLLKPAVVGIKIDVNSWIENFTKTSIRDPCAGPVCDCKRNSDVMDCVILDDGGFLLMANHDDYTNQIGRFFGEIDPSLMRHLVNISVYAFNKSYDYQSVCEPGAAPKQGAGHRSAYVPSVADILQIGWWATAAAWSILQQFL
human Cav2.2, sequence (P54289 947-1103 partner limits assumed): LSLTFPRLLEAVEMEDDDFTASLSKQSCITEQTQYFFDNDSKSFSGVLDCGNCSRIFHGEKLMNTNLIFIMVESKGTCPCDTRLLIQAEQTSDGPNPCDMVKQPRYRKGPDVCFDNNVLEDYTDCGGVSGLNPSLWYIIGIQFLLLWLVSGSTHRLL
human Cav2.2, sequence (P54284 whole entry partner): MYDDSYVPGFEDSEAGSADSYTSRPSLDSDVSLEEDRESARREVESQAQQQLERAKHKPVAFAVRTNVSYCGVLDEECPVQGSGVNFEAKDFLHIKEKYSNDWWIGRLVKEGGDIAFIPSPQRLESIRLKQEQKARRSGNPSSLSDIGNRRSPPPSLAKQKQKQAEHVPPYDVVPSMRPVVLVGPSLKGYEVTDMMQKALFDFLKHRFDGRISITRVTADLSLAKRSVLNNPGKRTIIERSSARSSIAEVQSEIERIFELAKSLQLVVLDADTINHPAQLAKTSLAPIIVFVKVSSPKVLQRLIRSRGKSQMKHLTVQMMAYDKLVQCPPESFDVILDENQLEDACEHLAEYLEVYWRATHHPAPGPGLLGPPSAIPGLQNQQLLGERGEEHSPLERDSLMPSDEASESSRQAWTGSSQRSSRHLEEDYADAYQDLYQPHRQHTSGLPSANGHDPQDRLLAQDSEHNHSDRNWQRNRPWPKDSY

IC50 | Compound
4530 nM | CC(C)[C@H](N)CC(=O)N[C@H]1CC[C@@H]2CN(S(=O)(=O)c3cccc(C(F)(F)F)c3)C[C@@H]21 [Example 388, (3R)-3-amino-4-methyl-N-((3aR,4S,6aS)-2-{[3-(trifluoromethyl)phenyl]sulfonyl}octahydrocyclopenta[c]pyrrol-4-yl)pentanamide]
2460 nM | O=C(N[C@H]1CC[C@@H]2CN(S(=O)(=O)c3cccc(C(F)(F)F)c3)C[C@@H]21)[C@@H]1CCCCN1 [Example 390, (2S)—N-((3aR,4S,6aS)-2-{[3-(trifluoromethyl)phenyl]sulfonyl}octahydrocyclopenta[c]pyrrol-4-yl)piperidine-2-carboxamide]
1080 nM | CCCC[C@H](NC)C(=O)N[C@H]1CC[C@@H]2CN(S(=O)(=O)c3cccc(C(F)(F)F)c3)C[C@@H]21 [Example 393, N^2-methyl-N^1-((3aR,4S,6aS)-2-{[3-(trifluoromethyl)phenyl]sulfonyl}octahydrocyclopenta[c]pyrrol-4-yl)-L-norleucinamide]
980 nM | CCC[C@H](NC)C(=O)N[C@H]1CC[C@@H]2CN(S(=O)(=O)c3cccc(C(F)(F)F)c3)C[C@@H]21 [Example 394, N^2-methyl-N^1-((3aR,4S,6aS)-2-{[3-(trifluoromethyl)phenyl]sulfonyl}octahydrocyclopenta[c]pyrrol-4-yl)-L-norvalinamide]
2120 nM | CN[C@@H](CC(C)C)C(=O)N[C@H]1CC[C@@H]2CN(S(=O)(=O)c3ccc(C(F)(F)F)cc3)C[C@@H]21 [Example 395, N^2-methyl-N^1-((3aR,4S,6aS)-2-{[4-(trifluoromethyl)phenyl]sulfonyl}octahydrocyclopenta[c]pyrrol-4-yl)-L-leucinamide]
3550 nM | O=C(N[C@@H]1CC[C@H]2CN(S(=O)(=O)c3cccc(C(F)(F)F)c3)C[C@H]21)[C@@H]1CCCN1 [Example 396, N-((3aS,4R,6aR)-2-{[3-(trifluoromethyl)phenyl]sulfonyl}octahydrocyclopenta[c]pyrrol-4-yl)-L-prolinamide]
3250 nM | O=C(N[C@@H]1CC[C@H]2CN(S(=O)(=O)c3cccc(C(F)(F)F)c3)C[C@H]21)[C@@H]1CCCCN1 [Example 398, (2S)—N-((3aS,4R,6aR)-2-{[3-(trifluoromethyl)phenyl]sulfonyl}octahydrocyclopenta[c]pyrrol-4-yl)piperidine-2-carboxamide]
6860 nM | CN[C@H](C(=O)N[C@@H]1CC[C@H]2CN(S(=O)(=O)c3ccc(F)cc3)C[C@H]21)C(C)C [Example 400, N^1-{(3aS,4R,6aR)-2-[(4-fluorophenyl)sulfonyl]octahydrocyclopenta[c]pyrrol-4-yl}-N^2-methyl-L-valinamide]
2060 nM | CN[C@H](C(=O)N[C@@H]1CC[C@H]2CN(S(=O)(=O)c3ccc(C(F)(F)F)cc3)C[C@H]21)C(C)C [Example 402, N^2-methyl-N^1-((3aS,4R,6aR)-2-{[4-(trifluoromethyl)phenyl]sulfonyl}octahydrocyclopenta[c]pyrrol-4-yl)-L-valinamide]
1020 nM | CCC[C@H](NC)C(=O)N[C@@H]1CC[C@H]2CN(S(=O)(=O)c3ccc(C(F)(F)F)cc3)C[C@H]21 [Example 404, N^2-methyl-N^1-((3aS,4R,6aR)-2-{[4-(trifluoromethyl)phenyl]sulfonyl}octahydrocyclopenta[c]pyrrol-4-yl)-L-norvalinamide]
3690 nM | CN[C@H](C(=O)N[C@@H]1CC[C@H]2CN(S(=O)(=O)c3cccc(C(F)(F)F)c3)C[C@H]21)C(C)C [Example 406, N^2-methyl-N^1-((3aS,4R,6aR)-2-{[3-(trifluoromethyl)phenyl]sulfonyl}octahydrocyclopenta[c]pyrrol-4-yl)-L-valinamide]
5430 nM | CN[C@@H](CC(C)C)C(=O)N[C@@H]1CC[C@H]2CN(S(=O)(=O)c3ccc(F)c(C(F)(F)F)c3)C[C@H]21 [Example 407, N^1-((3aS,4R,6aR)-2-{[4-fluoro-3-(trifluoromethyl)phenyl]sulfonyl}octahydrocyclopenta[c]pyrrol-4-yl)-N^2-methyl-L-leucinamide]
